Laboratory results reported in patent publication US20250382322A1, “DIAGNOSTICS FOR DETECTING ECTO-5'-NUCLEOTIDASE (CD73)” (EBERHARD KARLS UNIVERSITÄT TÜBINGEN, priority 2022, published 2025).

Molecular target: T1, human NTPDase2 (Homo sapiens, UniProt Q9Y5L3)
T1 sequence (Q9Y5L3 1-495): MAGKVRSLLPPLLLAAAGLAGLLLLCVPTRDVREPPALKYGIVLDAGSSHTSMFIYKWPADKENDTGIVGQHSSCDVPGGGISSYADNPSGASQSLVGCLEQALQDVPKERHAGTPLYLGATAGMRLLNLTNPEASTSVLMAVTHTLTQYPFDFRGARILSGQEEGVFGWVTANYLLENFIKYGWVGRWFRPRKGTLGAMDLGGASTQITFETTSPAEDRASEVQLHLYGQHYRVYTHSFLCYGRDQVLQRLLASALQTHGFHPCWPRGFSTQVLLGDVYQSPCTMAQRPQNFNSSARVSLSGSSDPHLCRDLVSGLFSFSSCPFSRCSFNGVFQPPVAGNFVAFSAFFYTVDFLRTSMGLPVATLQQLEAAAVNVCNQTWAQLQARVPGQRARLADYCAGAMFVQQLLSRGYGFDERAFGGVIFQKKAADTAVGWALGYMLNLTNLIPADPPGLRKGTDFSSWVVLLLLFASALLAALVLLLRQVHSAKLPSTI
Assay: Capillary electrophoresis assay for human NTPDase2
Type: biochemical
Details: ATP (100 μM) as substrate
Experimental: Inhibitory activity of the CD73 inhibitors 2 and 20 at human NTPDases 1, 2, 3, and 8 was investigated using ATP (100 μM) as a substrate according to previously published procedures.^24 ATP and 2 were co-incubated with recombinantly expressed human NTPDases at 37° C. for 30 min, and the enzymatic reaction was terminated by heating at 90° C. for 10 min. The amount of enzyme preparation was adjusted to ensure 10-20% of substrate conversion. The formed products were separated by capillary electrophoresis (CE) and individually quantitated by diode array detection (DAD) at a wavelength of 260 nm. For inhibition analysis, at least three independent experiments were performed each in triplicate. The inhibition of the enzyme activity was calculated in relation to the positive control without inhibitor and plotted by GraphPad Prism 8 software (GraphPad software, San Diego, CA, USA) (for results see Table 2 and Table 3).
Test compounds were investigated at a concentration of 50 μM, and 100 μM ATP substrate according to published procedures.^24 Recombinantly expressed human NTPDases were employed. The amount of enzyme preparation was adjusted to ensure 10-20% of substrate conversion. […] The inhibition of the enzyme activity was calculated in relation to the positive control without inhibitor and plotted in GraphPad Prism 8 software (GraphPad software, San Diego, CA, USA). […]

Row | Structure (SMILES) | IC50 [µM]
1 | CCCN(Cc1ccc(-c2cn(CCF)nn2)cc1)c1nc(Cl)nc2c1ncn2[C@@H]1O[C@H](COP(=O)(O)CP(=O)(O)O)C(O)C1O (some centres unmarked) [Compound 2] | > 50
2 | O=C(NCCCCCCNC(=O)c1ccc2c(c1)C1(OC2=O)c2ccc(O)cc2Oc2cc(O)ccc21)c1ccc(CNc2nc(Cl)nc3c2ncn3[C@@H]2O[C@H](COP(=O)(O)CP(=O)(O)O)[C@@H](O)[C@H]2O)cc1 [Compound 20, (((((2R,3S,4R,5R)-5-(2-chloro-6-((4-((6-(3′,6′-dihydroxy-3-oxo-3H-spiro[isobenzofuran-1,9′-xanthene]-6-carboxamido)-hexyl)carbamoyl)benzyl)amino)-9H-purin-9-yl)-3,4-dihydroxytetrahydrofuran-2-yl)methoxy)(hydroxy)phosphoryl)methyl)phosphonic acid] | < 50
